# Assay results: ChEMBL document CHEMBL4665865, “New series of isoxazole derivatives targeting EGFR-TK: Synthesis, molecular modeling and antitumor evaluation” (Bioorg Med Chem, 2020)
# Tests used:
# [1] = tested on: HCT-116; assay: Antitumor activity against human HCT-116 cells assessed as inhibition of cell viability by MTT assay; format: functional, cell-based
# [2] = tested on: MCF7; assay: Antitumor activity against human MCF7 cells assessed as inhibition of cell viability by MTT assay; format: functional, cell-based
# [3] = tested on: HepG2; assay: Antitumor activity against human HepG2 cells assessed as inhibition of cell viability by MTT assay; format: functional, cell-based
# [4] = Lipophilicity, logP of the compound; format: physicochemical; conditions: octanol/water
# [5] = target: Epidermal growth factor receptor (Homo sapiens, UniProt P00533); assay: Inhibition of EGFR-TK (unknown origin) relative to control
# [6] = target: DNA topoisomerase 2-beta (Homo sapiens, UniProt Q02880); assay: Inhibition of Topoisomerase II beta (unknown origin) relative to control
# DNA topoisomerase 2-beta, sequence (Q02880 whole entry): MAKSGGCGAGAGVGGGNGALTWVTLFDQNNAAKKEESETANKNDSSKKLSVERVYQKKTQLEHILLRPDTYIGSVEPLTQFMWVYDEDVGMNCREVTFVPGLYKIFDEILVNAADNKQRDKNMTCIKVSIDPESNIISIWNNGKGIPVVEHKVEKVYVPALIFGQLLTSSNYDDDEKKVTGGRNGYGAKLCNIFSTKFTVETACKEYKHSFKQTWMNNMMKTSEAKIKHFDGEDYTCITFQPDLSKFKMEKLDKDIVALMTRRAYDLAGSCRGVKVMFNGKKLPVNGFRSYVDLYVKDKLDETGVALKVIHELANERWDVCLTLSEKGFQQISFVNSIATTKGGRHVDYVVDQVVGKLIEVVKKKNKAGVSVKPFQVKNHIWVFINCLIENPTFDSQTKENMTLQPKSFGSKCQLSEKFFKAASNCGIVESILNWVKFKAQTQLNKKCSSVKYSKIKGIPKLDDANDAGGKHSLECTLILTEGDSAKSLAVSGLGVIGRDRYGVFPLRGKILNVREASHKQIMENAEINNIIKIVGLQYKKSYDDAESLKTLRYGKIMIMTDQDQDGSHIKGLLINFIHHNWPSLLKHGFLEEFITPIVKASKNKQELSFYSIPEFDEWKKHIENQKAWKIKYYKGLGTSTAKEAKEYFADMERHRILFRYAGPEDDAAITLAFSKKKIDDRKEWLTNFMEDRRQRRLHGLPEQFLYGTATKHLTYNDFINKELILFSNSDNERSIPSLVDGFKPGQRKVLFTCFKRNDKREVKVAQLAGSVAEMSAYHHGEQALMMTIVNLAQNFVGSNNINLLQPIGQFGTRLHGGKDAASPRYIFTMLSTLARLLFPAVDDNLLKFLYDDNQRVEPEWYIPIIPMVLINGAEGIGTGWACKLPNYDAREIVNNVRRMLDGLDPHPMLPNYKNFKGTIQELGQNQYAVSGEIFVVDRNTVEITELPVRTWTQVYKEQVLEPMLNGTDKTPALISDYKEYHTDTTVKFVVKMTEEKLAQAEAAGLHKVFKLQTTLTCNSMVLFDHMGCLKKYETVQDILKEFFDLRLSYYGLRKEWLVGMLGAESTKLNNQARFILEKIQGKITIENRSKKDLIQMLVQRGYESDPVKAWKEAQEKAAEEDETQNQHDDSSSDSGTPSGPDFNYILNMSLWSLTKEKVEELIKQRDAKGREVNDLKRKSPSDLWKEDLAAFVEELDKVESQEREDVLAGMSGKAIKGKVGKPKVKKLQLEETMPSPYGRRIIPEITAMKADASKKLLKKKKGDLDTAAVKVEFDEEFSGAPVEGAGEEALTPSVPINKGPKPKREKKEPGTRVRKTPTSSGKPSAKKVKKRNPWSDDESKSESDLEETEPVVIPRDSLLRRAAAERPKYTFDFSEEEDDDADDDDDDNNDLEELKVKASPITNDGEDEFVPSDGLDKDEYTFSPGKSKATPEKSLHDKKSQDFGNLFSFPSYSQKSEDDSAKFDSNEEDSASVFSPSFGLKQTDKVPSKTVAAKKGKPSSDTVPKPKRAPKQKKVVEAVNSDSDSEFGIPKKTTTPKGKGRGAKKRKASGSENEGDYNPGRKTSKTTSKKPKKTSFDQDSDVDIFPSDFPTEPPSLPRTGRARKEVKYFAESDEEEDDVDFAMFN
# Epidermal growth factor receptor, sequence (P00533 whole entry): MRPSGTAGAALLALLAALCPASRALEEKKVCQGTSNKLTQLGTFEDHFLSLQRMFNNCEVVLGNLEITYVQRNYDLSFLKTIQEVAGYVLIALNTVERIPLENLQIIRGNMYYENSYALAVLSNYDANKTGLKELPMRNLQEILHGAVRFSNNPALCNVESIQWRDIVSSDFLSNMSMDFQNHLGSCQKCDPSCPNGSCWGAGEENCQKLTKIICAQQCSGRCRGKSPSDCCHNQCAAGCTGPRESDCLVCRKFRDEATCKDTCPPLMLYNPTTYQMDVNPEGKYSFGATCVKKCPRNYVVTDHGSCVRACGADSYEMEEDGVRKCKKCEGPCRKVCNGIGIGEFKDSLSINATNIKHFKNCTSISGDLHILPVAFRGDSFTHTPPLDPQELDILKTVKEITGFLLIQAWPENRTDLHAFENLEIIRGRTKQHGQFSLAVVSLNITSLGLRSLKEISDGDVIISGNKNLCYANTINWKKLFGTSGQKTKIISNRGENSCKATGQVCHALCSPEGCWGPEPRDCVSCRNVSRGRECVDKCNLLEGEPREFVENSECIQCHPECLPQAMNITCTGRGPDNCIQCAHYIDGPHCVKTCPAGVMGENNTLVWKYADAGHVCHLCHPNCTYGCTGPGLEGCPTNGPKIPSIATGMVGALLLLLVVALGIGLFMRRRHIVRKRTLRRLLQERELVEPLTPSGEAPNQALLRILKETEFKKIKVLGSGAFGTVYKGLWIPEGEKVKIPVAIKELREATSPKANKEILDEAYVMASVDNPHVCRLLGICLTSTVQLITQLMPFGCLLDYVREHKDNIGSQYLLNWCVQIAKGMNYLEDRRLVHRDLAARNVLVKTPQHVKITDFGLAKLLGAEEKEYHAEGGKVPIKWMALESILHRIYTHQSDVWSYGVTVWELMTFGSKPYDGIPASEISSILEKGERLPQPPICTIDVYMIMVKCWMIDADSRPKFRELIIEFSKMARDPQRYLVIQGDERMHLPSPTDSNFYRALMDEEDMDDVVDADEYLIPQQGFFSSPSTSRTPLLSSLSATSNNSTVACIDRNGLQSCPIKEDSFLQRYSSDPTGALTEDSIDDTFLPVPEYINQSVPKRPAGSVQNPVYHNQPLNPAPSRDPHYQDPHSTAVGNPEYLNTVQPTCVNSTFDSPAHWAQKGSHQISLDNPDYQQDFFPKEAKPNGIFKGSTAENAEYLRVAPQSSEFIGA
SMILES,IC50 [1] [µM],IC50 [2] [µM],IC50 [3] [µM],logP [4],IC50 [5] [µM],IC50 [6] [µM]
Cc1cc(NC2=NC(=O)/C(=C\c3ccc(Br)s3)S2)no1,36.6,24.2,32.8,,,
Cc1cc(NC(=O)CCCl)no1,75.3,48.9,62,,,
CC(C)(C)c1cc(NC2=NC(=O)/C(=C\c3ccc(-c4ccccc4)cc3)S2)no1,86.4,59.3,84.7,6.5,,
Cc1cc(NC(=O)CCl)no1,13.1,10.4,11.1,0.55,0.106,
CC(C)(C)c1cc(NC2=NC(=O)/C(=C\c3ccc(Cl)c(Cl)c3)S2)no1,62.8,32.5,43.8,,,
CC(C)(C)c1cc(NC2=NC(=O)/C(=C\c3ccco3)S2)no1,66.7,42.9,68.2,,,
CC(C)(C)c1cc(NC2=NC(=O)/C(=C\c3ccc(Br)cc3)S2)no1,64.4,36.1,48.2,5.51,,
CC(C)(C)c1cc(N2C(=O)c3c(Cl)c(Cl)c(Cl)c(Cl)c3C2=O)no1,> 100,88.3,> 100,,,
Cc1cc(NC2=NC(=O)/C(=C\c3ccc4ccccc4c3)S2)no1,> 100,> 100,> 100,4.16,,
Cc1cc(NC2=NC(=O)/C(=C\c3ccc(Cl)c(Cl)c3)S2)no1,40.6,37.7,45.2,,,
Cc1cc(N2C(=O)c3c(Br)c(Br)c(Br)c(Br)c3C2=O)no1,> 100,> 100,> 100,,,
Cc1cc(NC2=NC(=O)/C(=C\c3ccc(Br)cc3)S2)no1,95,68.7,87.8,3.79,,
Cc1ccc(/C=C2/SC(Nc3cc(C(C)(C)C)on3)=NC2=O)cc1,51.3,39.6,55.4,5.15,,
Cc1cc(N2C(=O)c3c(Cl)c(Cl)c(Cl)c(Cl)c3C2=O)no1,> 100,> 100,> 100,,,
CC(C)(C)c1cc(N2C(=O)c3c(Br)c(Br)c(Br)c(Br)c3C2=O)no1,> 100,64.9,90.4,,,
Cc1cc(NC2=NC(=O)/C(=C\c3ccco3)S2)no1,58.3,30.3,41.6,,,
COc1cccc2c1C(=O)c1c(O)c3c(c(O)c1C2=O)C[C@@](O)(C(=O)CO)C[C@@H]3O[C@H]1C[C@H](N)[C@H](O)[C@H](C)O1 [DOXORUBICIN],,,,,,0.727
CC(C)(C)c1cc(NC2=NC(=O)CS2)no1,11.5,9.42,18.3,1.97,0.15,
CC(C)(C)c1cc(NC2=NC(=O)/C(=C\c3ccc(Br)s3)S2)no1,> 100,> 100,> 100,,,
CC(C)(C)c1cc(NC2=NC(=O)/C(=C\c3ccc4ccccc4c3)S2)no1,94.2,67.6,79.2,5.89,,
CC(C)(C)c1cc(NC2=NC(=O)/C(=C\c3c(F)cccc3Cl)S2)no1,> 100,70.6,91.6,,,
Cc1ccc(/C=C2/SC(Nc3cc(C)on3)=NC2=O)cc1,> 100,> 100,> 100,3.43,,
Cc1cc(NC(=O)CN2CCOCC2)no1,> 100,81.8,> 100,0.19,,
Cc1cc(NC2=NC(=O)CS2)no1,20.8,14.8,23.8,0.24,0.081,
Cc1cc(NC2=NC(=O)/C(=C\c3ccc(-c4ccccc4)cc3)S2)no1,> 100,> 100,> 100,4.78,,
Cc1cc(NC2=NC(=O)/C(=C\c3c(F)cccc3Cl)S2)no1,31.8,21.4,31.1,,,

# Other lines, results leading:
IC50 [1] [µM],IC50 [2] [µM],IC50 [3] [µM],logP [4],IC50 [5] [µM],IC50 [6] [µM],SMILES
> 100,74.6,> 100,1.86,,,CN1CCN(CCC(=O)Nc2cc(C(C)(C)C)on2)CC1
88.2,65.1,63.5,0.23,,,Cc1cc(NC(=O)CN2CCN(C)CC2)no1
28,19.6,25,1.91,0.144,,CC(C)(C)c1cc(NC(=O)CN2CCOCC2)no1
46.1,29.1,51.8,1.84,,,Cc1cc(NC(=O)CCN2CCN(c3ccccc3)CC2)no1
89.6,51.9,71.5,,,,Cc1cc(NC(=O)CCN2CCOCC2)no1
80.1,56.2,65.3,1.96,,,CN1CCN(CC(=O)Nc2cc(C(C)(C)C)on2)CC1
85.2,55.4,83,3.26,,,CC(C)(C)c1cc(NC(=O)CCN2CCN(Cc3ccccc3)CC2)no1
92.6,59.8,74.8,,,,CC(C)(C)c1cc(NC(=O)CCCl)no1
26.2,16.7,35,1.93,0.064,,Cc1cc(NC(=O)CN2CCN(c3ccccc3)CC2)no1
24.7,17.2,28.4,3.66,0.066,,CC(C)(C)c1cc(NC(=O)CN2CCN(c3ccccc3)CC2)no1
38.4,27.1,39.1,2.33,,,CCN1CCN(CC(=O)Nc2cc(C(C)(C)C)on2)CC1
75.8,44.2,56.7,0.14,,,Cc1cc(NC(=O)CCN2CCN(C)CC2)no1
78.4,47.9,57.1,3.36,,,CC(C)(C)c1cc(NC(=O)CN2CCN(Cc3ccccc3)CC2)no1
> 100,92.2,89.4,1.54,,,Cc1cc(NC(=O)CCN2CCN(Cc3ccccc3)CC2)no1
> 100,78.2,93.5,,,,CC(C)(C)c1cc(NC(=O)CCN2CCOCC2)no1
33.6,23,37.1,3.56,,,CC(C)(C)c1cc(NC(=O)CCN2CCN(c3ccccc3)CC2)no1
73.2,44.8,50.3,1.63,,,Cc1cc(NC(=O)CN2CCN(Cc3ccccc3)CC2)no1
17.6,12.6,19.5,0.61,0.081,,CCN1CCN(CC(=O)Nc2cc(C)on2)CC1
9.96,7.15,9.74,2.27,0.124,,CC(C)(C)c1cc(NC(=O)CCl)no1
91.2,61.3,76.4,2.24,,,CCN1CCN(CCC(=O)Nc2cc(C(C)(C)C)on2)CC1
69,45.7,52.2,0.51,,,CCN1CCN(CCC(=O)Nc2cc(C)on2)CC1
